Columns and labels:
Experiment in all cases: relative viability (nuclei count vs DMSO), 5 days (fraction); higher = more cells survive
Sulindac + OSI-027 = compound: CC1=C(CC(=O)O)c2cc(F)ccc2/C1=C\c1ccc([S+](C)[O-])cc1 [Sulindac] + COc1cccc2cc(-c3nc([C@H]4CC[C@H](C(=O)O)CC4)n4ncnc(N)c34)[nH]c12 [OSI-027] (partner 0.5 µM)
Outline: (§1)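 Relative viability divides the nuclei count in treated wells by that in vehicle wells. Lung cancer cell lines were seeded in 1536-well plates, dosed by pin tool the next day, and fixed and stained after 5 days in one step with final 0.05% Triton X-100, 1% formaldehyde and 1 ug/ml Hoechst. Dosing was a single drug or a fixed anchor-drug dose plus five library-drug doses (not always all listed) in √10 steps, and values are medians of duplicate plates imaged at 4×.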

Sulindac + Pemetrexed = compound: CC1=C(CC(=O)O)c2cc(F)ccc2/C1=C\c1ccc([S+](C)[O-])cc1 [Sulindac] + Nc1nc2[nH]cc(CCc3ccc(C(=O)N[C@@H](CCC(=O)O)C(=O)O)cc3)c2c(=O)[nH]1 [Pemetrexed] (partner 0.2 µM)
Outline: as §1

Sulindac + Vorinostat = compound: CC1=C(CC(=O)O)c2cc(F)ccc2/C1=C\c1ccc([S+](C)[O-])cc1 [Sulindac] + O=C(CCCCCCC(=O)Nc1ccccc1)NO [Vorinostat] (partner 1 µM)
Outline: as §1

[1] = compound: CN[C@@H]1C[C@H]2O[C@@](C)([C@@H]1OC)n1c3ccccc3c3c4c(c5c6ccccc6n2c5c31)C(=O)NC4 [Staurosporine] + CS(=O)(=O)N1CCN(Cc2cc3nc(-c4cccc5[nH]ncc45)nc(N4CCOCC4)c3s2)CC1 [Pictilisib] (partner 1 µM)
Outline: as §1

Row | Cell Line | relative viability (Sulindac + OSI-027; first compound 0.08 µM) | relative viability (Sulindac + OSI-027; first compound 0.253 µM) | relative viability (Sulindac + OSI-027; first compound 0.8 µM) | relative viability (Sulindac + OSI-027; first compound 2.53 µM) | relative viability (Sulindac + OSI-027; first compound 8 µM) | relative viability (Sulindac + Pemetrexed; first compound 0.08 µM) | relative viability (Sulindac + Pemetrexed; first compound 0.253 µM) | relative viability (Sulindac + Pemetrexed; first compound 0.8 µM) | relative viability (Sulindac + Pemetrexed; first compound 2.53 µM) | relative viability (Sulindac + Pemetrexed; first compound 8 µM) | relative viability (Sulindac + Vorinostat; first compound 0.08 µM) | relative viability (Sulindac + Vorinostat; first compound 0.253 µM) | relative viability (Sulindac + Vorinostat; first compound 0.8 µM) | relative viability (Sulindac + Vorinostat; first compound 2.53 µM) | relative viability (Sulindac + Vorinostat; first compound 8 µM) | relative viability ([1]; first compound 0.005 µM) | relative viability ([1]; first compound 0.01581 µM) | relative viability ([1]; first compound 0.05 µM) | relative viability ([1]; first compound 0.1581 µM) | relative viability ([1]; first compound 0.5 µM)
1 | 201T | 0.746 | 0.802 | 0.744 | 0.727 | 0.879 | 0.329 | 0.325 | 0.339 | 0.323 | 0.366 | 1.13 | 0.993 | 0.84 | 0.944 | 0.999 | 0.595 | 0.451 | 0.551 | 0.463 | 0.42
2 | A549 | – | – | – | – | – | – | – | – | – | – | – | – | – | – | – | 0.259 | 0.0929 | 0.0679 | 0.061 | 0.0434
3 | A-427 | 0.495 | 0.474 | 0.443 | 0.459 | 0.584 | 1.01 | 1 | 0.816 | 0.956 | 1.1 | 0.829 | 0.84 | 0.953 | 0.84 | 0.995 | 0.524 | 0.335 | 0.329 | 0.103 | 0.106
4 | ABC-1 | 0.503 | 0.447 | 0.361 | 0.466 | 0.489 | – | – | – | – | – | 1.01 | 1.27 | 1.14 | 0.74 | 1.09 | 0.256 | 0.164 | 0.112 | 0.0906 | 0.0638
5 | BEN | 0.312 | 0.271 | 0.29 | 0.321 | 0.301 | 0.816 | 0.757 | 0.698 | 0.706 | 0.998 | 0.576 | 0.57 | 0.539 | 0.614 | 0.617 | 0.836 | 0.612 | 0.474 | 0.251 | 0.204
6 | CAL-12T | 0.534 | 0.847 | 0.51 | 0.61 | 0.696 | 1.18 | 1.1 | 1.24 | 1.14 | 1.44 | 0.783 | 0.858 | 0.671 | 0.821 | 1.07 | 0.303 | 0.0968 | 0.135 | 0.19 | 0.218
7 | COR-L23 | 1.09 | 0.777 | 0.609 | 0.743 | 0.94 | 0.177 | 0.202 | 0.206 | 0.192 | 0.204 | 0.453 | 0.471 | 0.399 | 0.499 | 0.561 | 0.32 | 0.148 | 0.127 | 0.0645 | 0.0442
8 | COR-L 105 | 0.653 | 0.747 | 0.498 | 0.635 | 0.843 | 1.31 | 1.14 | 0.979 | 1.21 | 1.2 | 0.95 | 0.982 | 0.856 | 0.77 | 0.967 | 0.303 | 0.223 | 0.242 | 0.26 | 0.556
9 | Calu-6 | – | – | – | – | – | – | – | – | – | – | – | – | – | – | – | 0.584 | 0.298 | 0.222 | 0.0573 | 0.0441
10 | ChaGo-K-1 | 0.68 | 0.644 | 0.398 | 0.57 | 0.61 | 0.269 | 0.247 | 0.302 | 0.262 | 0.275 | 0.874 | 0.822 | 0.575 | 0.755 | 0.907 | 0.692 | – | 0.52 | 0.244 | –
11 | EBC-1 | – | – | – | – | – | – | – | – | – | – | – | – | – | – | – | 0.167 | 0.112 | 0.126 | 0.154 | 0.139
12 | EKVX | 0.674 | 0.713 | 0.641 | 0.598 | 0.684 | 0.471 | 0.421 | 0.323 | 0.423 | 0.433 | 0.636 | 0.635 | – | 0.652 | 0.771 | 0.403 | 0.218 | 0.184 | 0.163 | 0.121
13 | EMC-BAC-2 | 0.375 | 0.407 | 0.311 | 0.371 | 0.473 | 0.429 | 0.441 | 0.408 | 0.451 | 0.466 | 0.559 | 0.405 | 0.367 | 0.426 | 0.528 | 0.29 | 0.129 | 0.141 | 0.195 | 0.176
14 | EPLC-272H | 0.274 | 0.286 | – | 0.256 | 0.327 | 0.274 | 0.326 | 0.465 | 0.278 | 0.347 | 0.465 | 0.341 | 0.68 | 0.339 | 0.424 | 0.333 | 0.141 | 0.176 | 0.1 | 0.0694
15 | H3255 | 0.523 | 0.622 | 0.474 | 0.576 | 0.593 | 0.592 | 0.573 | 0.549 | 0.567 | 0.568 | 0.765 | 0.723 | 0.661 | 0.695 | 0.819 | 0.325 | 0.238 | 0.145 | 0.135 | 0.0752
16 | HARA | 0.553 | 0.549 | 0.447 | 0.488 | 0.602 | 0.237 | 0.257 | 0.242 | 0.239 | 0.288 | 0.474 | 0.675 | 0.425 | 0.512 | 0.461 | 0.193 | 0.23 | 0.0859 | 0.0523 | 0.062

Reference: the supplement of paper PMC10307832
